Source: patent US20230002389A1, “ADENINE ANALOGS, PRODRUGS, DERIVATIVES, COMPOSITIONS AND USES THEREOF” (priority 2021, published 2023)
Values joined by “and” are separate entries in the source; they are usually repeats but may differ in a detail not shown here. Identical values can stand only once. Like-named read-outs stand apart in the source and are kept apart here.

Key:
[1] = Pharmacokinetic analysis of T1-1 as a prodrug of MRS5474: plasma PK in mice after i.v. and p.o. dosing; format: in vivo, Male CD-1 mice; parameters: AUClast/D: unit not given here; conditions: CD-1 mice; for MRT inf: read-out: MRTInf_obs
Procedure: Pharmacokinetic Analysis of Compound T1-1 for Determination Utility as a Prodrug of MRS5474:
The dosing formulation (for i.v.) of T1-1 for mouse PK studies were prepared as 0.27 mg/mL solution of 10% DMSO+50% PEG400+40% WATER (Dissolved 1.19 mg of T1-1 in 0.441 mL of DMSO with vortexing and sonication, then added 2.204 mL of PEG400 and 1.763 mL of H2O with vortexing to obtain a solution). The dosing formulation (for p.o.) of T1-1 for mouse PK studies were prepared 2.71 mg/mL solution of 10% DMSO+50% PEG400+40% WATER (Dissolved 10.17 mg of in 0.375 mL of DMSO with vortexing and sonication, then added 1.876 mL […] of PEG400 and 1.501 mL of H2O with vortexing to obtain a solution.)
Animals: Male CD-1 mice (6-8 weeks of age), weighing 20-22 g; all animals were allowed to acclimate to this environment for one week prior to experimental manipulations.
Study Design: Study design The CD1 mice were given a single dose of T1-1 by bodyweight via intravenous (i.v.), or via oral gavage (p.o) administration. The blood and brain tissue samples were collected at intervals (h) of 0, 0.5, 1, 2, 4, 8, and 24. (n=3, each time point).
Plasma Sample Preparation: Approximately 0.3 mL blood will be collected at each time point. After collecting the blood at each time point, add 250 to 300 μL of the blood sample to Eppendorf tube containing EDTA solution+10 μL of inhibitor stock and vortexed for 15 minutes and then centrifugation at 4000 g for 5 minutes in a 4° C. centrifuge to obtain plasma.
The desired serial concentrations of working solutions were achieved by diluting a stock solution of the analyte with 50% acetonitiile in water solution. 5 μL of working solutions (5, 10, 20, 50, 100, 500, 1000, 5000, 10000 ng/mL) were added to 50 μL of the blank CD1 Mouse plasma to achieve calibration standards of 0.5-1000 ng/mL (0.5, 1, 2, 5, 10, 50, 100, 500, 1000 ng/mL) in a total volume of 55 μL. Five quality control samples at 1 ng/mL, 2 ng/mL, 5 ng/mL, 50 ng/mL, and 800 ng/mL for plasma were prepared independently of those used for the calibration curves. These QC samples were prepared on the day of analysis in the same way as calibration standards. 55 μL standards, 55 μL QC samples and 55 unknown samples (50 μL plasma with 5 μL blank solution) were added to 200 μL of acetonitrile containing IS mixture for precipitating protein respectively. Then the samples were vortexed for 30 s. After centrifugation at 4 degree Celsius, 3900 rpm for 15 min, the supernatant was diluted 3 times with water. 1 μL of diluted supernatant was injected into the LC/MS/MS system for quantitative analysis using (Shimadzu-DGU-20A5 integrated with AB AP15500 LCMS/MS instrument) with to determine plasma concentrations of T1-1 and the metabolite (parent compound) MRA5474. The data were analyzed for test article T1-1 and the metabolite (parent compound) MRA5474 for PK profile.
The mobile phase consisted of acetonitrile and water mixtures, solution A: 5% acetonitrile (0.1% formic acid) and solution B: 95% acetonitrile (0.1% formic acid) with gradient elution from 90 to 10% solution A over 1.71 min. The flow rate was 0.7 mL/min. YMC Triart C18 5 μm (50×2.1 mm) column was used for the separation of the sample components.
Results: Summary of IV and PO of Plasma Pharmacokinetic Parameters

Homer 1a = assay: Quantitative real-time PCR analysis of brain tissue after oral gavage of T1-1; format: in vivo, Male CD1 mice; conditions: PO(2 h); for % Vehicle Mean: group mean of 3 mice; for % Vehicle Average / % Vehicle n = 1 / % Vehicle n = 2 / Relative mRNA expression (2^(−ΔCt)) Average / Relative mRNA expression(2^(−ΔCt)) n = 1 / Relative mRNA expression(2^(−ΔCt)) n = 2: individual mice M31-M33
Procedure: Quantitative Real-Time PCR Analysis
Male CD1 mice were administered vehicle and test compound (T1-1) by oral gavage. After 2 hours, the were decapitated, and their brain samples were collected. Total RNA from the brain tissue were isolated using […], RNA integrity was confirmed, and the concentration was quantified by measuring the optical density. Reverse transcription was performed (Invitrogen) for cDNA synthesis according to the manufacturer's instructions. Real-time qPCR was performed on Real-Time PCR System using SYBR Green. The amplification reactions were performed as per the supplier's protocol.

[2] = IV(plasma), T1-1 dosed 1.35 mg/kg, analyte = label
[3] = male, mouse, IV(plasma), T1-1 dosed 1.35 mg/kg, analyte = label
[4] = male, mouse, IV(plasma), T1-1 dosed 1.35 mg/kg, analyte = label (T1-1 or metabolite MRS5474)
[5] = male, mouse, PO(plasma), T1-1 dosed 13.55 mg/kg, analyte = label
[6] = IV(plasma), T1-1 dosed 1.35 mg/kg
[7] = PO(plasma), T1-1 dosed 13.55 mg/kg

For `O[C@@H]1[C@H](O)[C@@H]2C[C@@H]2[C@H]1n1cnc2c(NC(C3CC3)C3CC3)nc(Cl)nc21` [MRS5474, (1R,2R,3S,4R,5S)-4-(2-chloro-6-((dicyclopropylmethyl)amino)-9H-purin-9-yl) bicyclo [3.1.0] hexane-2,3-diol, reference compound], the “AUC_% Extrap_obs” value [1, 2] was 2.62%, the “AUC_% Extrap_obs” value ([1]; PO(plasma), T1-1 dosed 13.55 mg/kg, analyte = label) was 0.08% and the AUC(0-inf) [1, 3] was 0.321 µg·h/mL. It also gave an AUC(0-t) [1, 3] of 0.313 µg·h/mL, a Cmax [1, 3] of 0.127 µg/mL and a Tmax [1, 3] of 1 h. It also gave a half-life [1, 4] of 1.55 h, an MRT inf [1, 3] of 2.32 h and an AUC(0-inf) [1, 5] of 6.99 µg·h/mL. For the same compound, the AUC(0-t) [1, 5] was 6.99 µg·h/mL, the Cmax [1, 5] was 0.522 µg/mL and the Tmax [1, 5] was 1 h. The half-life [1, 5] was 2.32 h and the MRT inf [1, 5] was 6.36 h.
With `O=C(NCN(c1nc(Cl)nc2c1ncn2[C@H]1[C@H](O)[C@H](O)[C@@H]2C[C@@H]21)C(C1CC1)C1CC1)c1ccccc1` [Compound T1-1, N-(((2-chloro-9-((1S,2R,3S,4R,5R)-3,4-dihydroxybicyclo [3.1.0]hexan-2-yl)-9H-purin-6-yl) (dicyclopropylmethyl)amino)methyl) benzamide] the AUClast/D [1, 6] was 289.77, the Vss_obs [1, 6] was 1.57 L/kg and the “AUC_% Extrap_obs” value [1, 2] was 0.93%. It also gave a Cl_obs [1, 2] of 3.419 L/h/kg, an AUClast/D [1, 7] of 34.47 and an F [1, 7] of 11.90%. It also gave an AUC(0-inf) [1, 3] of 0.395 µg·h/mL, an AUC(0-t) [1, 3] of 0.391 µg·h/mL and a C0 [1, 3] of 0.613 µg/mL. It also gave a half-life [1, 4] of 0.29 h, an MRT inf [1, 3] of 0.46 h and an AUC(0-t) [1, 5] of 0.467 µg·h/mL. The Cmax [1, 5] was 0.132 µg/mL, the Tmax [1, 5] was 0.5 h and the “% Vehicle Mean” value (Homer 1a; Homer 1a mRNA vs Actin) was 112.74%. For the same compound, the “% Vehicle Average” value (Homer 1a; Homer 1a mRNA vs Actin) was 131.98% and 104.88% and 101.37%, the “% Vehicle n = 1” value (Homer 1a; Homer 1a mRNA vs Actin) was 123.98% and 96.37% and 100.64% and the “% Vehicle n = 2” value (Homer 1a; Homer 1a mRNA vs Actin) was 139.98% and 113.39% and 102.10%. The “% Vehicle Mean” value (Homer 1a; Homer 1a mRNA vs GAPDH) was 66.54%, the “% Vehicle Average” value (Homer 1a; Homer 1a mRNA vs GAPDH) was 75.27% and 51.17% and 73.18% and the “% Vehicle n = 1” value (Homer 1a; Homer 1a mRNA vs GAPDH) was 72.27% and 49.10% and 72.10%. For the same compound, the “% Vehicle n = 2” value (Homer 1a; Homer 1a mRNA vs GAPDH) was 78.27% and 53.24% and 74.26%, the “Relative mRNA expression (2^(−ΔCt)) Average” value (Homer 1a; Homer 1a vs Actin) was 0.51 and 0.41 and 0.40 and the “Relative mRNA expression(2^(−ΔCt)) n = 1” value (Homer 1a; Homer 1a vs Actin) was 0.48 and 0.38 and 0.39. The “Relative mRNA expression(2^(−ΔCt)) n = 2” value (Homer 1a; Homer 1a vs Actin) was 0.55 and 0.44 and 0.40, the “Relative mRNA expression (2^(−ΔCt)) Average” value (Homer 1a; Homer 1a vs GAPDH) was 0.1187 and 0.0807 and 0.1154 and the “Relative mRNA expression(2^(−ΔCt)) n = 1” value (Homer 1a; Homer 1a vs GAPDH) was 0.1140 and 0.0774 and 0.1137. For the same compound, the “Relative mRNA expression(2^(−ΔCt)) n = 2” value (Homer 1a; Homer 1a vs GAPDH) was 0.1234 and 0.0840 and 0.1171.
